For the assay, the target named is T1, Gal4/hFXR fusion protein (Homo sapiens, UniProt Q96RI1).
T1 sequence (Q96RI1 262-486 limits assumed): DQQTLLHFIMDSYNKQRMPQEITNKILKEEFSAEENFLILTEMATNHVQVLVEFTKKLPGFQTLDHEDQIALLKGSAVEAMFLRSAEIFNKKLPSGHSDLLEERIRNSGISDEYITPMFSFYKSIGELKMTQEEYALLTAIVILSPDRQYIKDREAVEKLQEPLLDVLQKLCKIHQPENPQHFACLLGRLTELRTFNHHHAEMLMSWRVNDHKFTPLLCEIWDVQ
Briefly: Gal4/hFXR fusion protein agonist activity in human 293 cells (luciferase). Format: cell-based. Particulars: Gal4/FXR agonist potency in 293 cells; table does not say whether hFXR or mFXR; read-out: Potency Range. Details: Potency Range; other: Gal4/FXR agonist potency in 293 cells. The procedure: • Assay Medium: Phenol red free high glucose Dulbecco's modified Eagle's medium with sodium pyruvate (Cellgro, #17-205-CV) supplemented with 10% fetal bovine serum (Gibco, 16000-044), 1% glutamax (Gibco, 35050-061), 100 units/mL penicillin and 100 μg/mL streptomycin (Gibco, 15140-122). • Culturplate-96 (PerkinElmer, 6005688) • Lysis buffer (Promega, E3971) • Luciferase assay reagent (Promega E1483)
• 1. Compounds to be tested were prepared as 2× stocks in assay medium. • 2. […] The supernatant was removed and the cells were resuspended in 1 ml assay medium. The cells were counted and diluted in assay medium to 200,000 cells per ml. The cells were then plated at 10,000 cells per well in Culturplate-96 plates in 50 uL assay medium. The cells were incubated at 37° C. for approximately 1 hour. • 3. […] All assays included 1 uM GW4064 (Maloney et al., J. Med. Chem., 2000, 43(16), 2971-2974) as a reference standard. • 4. Cells were incubated for 24 hours at 37° C.
• 5. The medium was removed, and the cells were lysed in 25 uL lysis buffer (Promega, E3971). • 6. The plates were analyzed for luciferase activity with luciferase assay reagent (Promega E1483). Plates were read on Victor^3V instrument using the protocol “Shuguang Luciferase assay” (dispense volume=100 uL, plate type=“Packard Viewplate”, measurement height=8 mm from bottom of plate, 5 second read per well).
• 1. For agonist single point screening, data were analyzed in Excel. Each compound was tested in triplicate. • 2. For agonist potency determinations, statistical analysis of the data was performed using a customized Excel/SAS program. Dose response curves were generated using a four parameter (min, max, slope, and EC50 where EC50 is defined as the concentration which corresponds to midway between the estimated max and min) logistic model using log-transformed data (data was transformed on both sides with known lambda=0). • 3.

Where a name gives a salt, the structure may show the parent alone.

As for `CC(C)OC(=O)C1=CN(C(=O)c2cccc(CN3C[C@@H](C)O[C@H](C)C3)c2)CC(C)(C)c2c1[nH]c1ccccc21` [Example 5, Isopropyl 3-(3-{[(2R,6R)-2,6-dimethylmorpholin-4-yl]methyl}benzoyl)-1,1-dimethyl-1,2,3,6-tetrahydroazepino[4,5-b]indole-5-carboxylate], the EC50 lay within 100 to 500 nM.
In the case of `CC(C)OC(=O)C1=CN(C(=O)c2cccc(CN3C[C@@H](C)O[C@@H](C)C3)c2)CC(C)(C)c2c1[nH]c1ccccc21` [Example 6, Isopropyl 3-(3-{[(2R,6S)-2,6-dimethylmorpholin-4-yl]methyl}benzoyl)-1,1-dimethyl-1,2,3,6-tetrahydroazepino[4,5-b]indole-5-carboxylate], the EC50 fell in the range of 500 to 1000 nM.
Under `CC(C)OC(=O)C1=CN(C(=O)c2cccc(CN3C[C@@H](C)N[C@@H](C)C3)c2)CC(C)(C)c2c1[nH]c1ccccc21` [Example 7, Isopropyl 3-(3-{[(3R,5S)-3,5-dimethylpiperazin-1-yl]methyl}benzoyl)-1,1-dimethyl-1,2,3,6-tetrahydroazepino[4,5-b]indole-5-carboxylate] stands 500 to 1000 nM; under `CC(C)OC(=O)C1=CN(C(=O)c2cccc(CN3CCC(C(N)=O)CC3)c2)CC(C)(C)c2c1[nH]c1ccccc21` [Example 8, Isopropyl 3-{3-[(4-carbamoylpiperidin-1-yl)methyl]benzoyl}-1,1-dimethyl-1,2,3,6-tetrahydroazepino[4,5-b]indole-5-carboxylate], 500 to 1000 nM.
For `CC(C)OC(=O)C1=CN(C(=O)c2cccc(CN3CCC(N4CCOCC4)CC3)c2)CC(C)(C)c2c1[nH]c1ccccc21` [Example 9, Isopropyl 1,1-dimethyl-3-{3-[(4-morpholin-4-ylpiperidin-1-yl)methyl]benzoyl}-1,2,3,6-tetrahydroazepino[4,5-b]indole-5-carboxylate], the EC50 was in the range of 1000 to 10000 nM.
Consider `CC(C)OC(=O)C1=CN(C(=O)c2cccc(CN3CCSC3)c2)CC(C)(C)c2c1[nH]c1ccccc21` [Example 10, Isopropyl 1,1-dimethyl-3-[3-(1,3-thiazolidin-3-ylmethyl)benzoyl]-1,2,3,6-tetrahydroazepino[4,5-b]indole-5-carboxylate], for which the EC50 was in the range of 100 to 500 nM.
Next, `CC(C)OC(=O)C1=CN(C(=O)c2cccc(CN3CCC(N4CCCCC4)CC3)c2)CC(C)(C)c2c1[nH]c1ccccc21` [Example 11, Isopropyl 3-[3-(1,4′-bipiperidin-1′-ylmethyl)benzoyl]-1,1-dimethyl-1,2,3,6-tetrahydroazepino[4,5-b]indole-5-carboxylate]: 1000 to 10000 nM; `CC(C)OC(=O)C1=CN(C(=O)c2cccc(CN3CCC(N4CCCC4)CC3)c2)CC(C)(C)c2c1[nH]c1ccccc21` [Example 12, Isopropyl 1,1-dimethyl-3-{3-[(4-pyrrolidin-1-ylpiperidin-1-yl)methyl]benzoyl}-1,2,3,6-tetrahydroazepino[4,5-b]indole-5-carboxylate]: 1000 to 10000 nM.
In the case of `CC(C)OC(=O)C1=CN(C(=O)c2cccc(CN3C[C@@H](C)C[C@H](C)C3)c2)CC(C)(C)c2c1[nH]c1ccccc21` [Example 13, Isopropyl 3-(3-{[(3S,5S)-3,5-dimethylpiperidin-1-yl]methyl}benzoyl)-1,1-dimethyl-1,2,3,6-tetrahydroazepino[4,5-b]indole-5-carboxylate], the EC50 lay within 100 to 500 nM.
Under `CC(C)OC(=O)C1=CN(C(=O)c2cccc(CN3C[C@H](C)C[C@H](C)C3)c2)CC(C)(C)c2c1[nH]c1ccccc21` [Example 14, Isopropyl 3-(3-{[(R3R,5S)-3,5-dimethylpiperidin-1-yl]methyl}benzoyl)-1,1-dimethyl-1,2,3,6-tetrahydroazepino[4,5-b]indole-5-carboxylate] stands 1000 to 10000 nM; under `CC(C)OC(=O)C1=CN(C(=O)c2cccc(CN3CCSCC3)c2)CC(C)(C)c2c1[nH]c1ccccc21` [Example 15, Isopropyl 1,1-dimethyl-3-[3-(thiomorpholin-4-ylmethyl)benzoyl]-1,2,3,6-tetrahydroazepino[4,5-b]indole-5-carboxylate], 100 to 500 nM; under `CC(C)OC(=O)C1=CN(C(=O)c2cccc(CN3[C@@H](C)CC[C@@H]3C)c2)CC(C)(C)c2c1[nH]c1ccccc21` [Example 16, Isopropyl 3-(3-{[(2S,5S)-2,5-dimethylpyrrolidin-1-yl]methyl}benzoyl)-1,1-dimethyl-1,2,3,6-tetrahydroazepino[4,5-b]indole-5-carboxylate], 1000 to 10000 nM.
Turning to `CC(C)OC(=O)C1=CN(C(=O)c2cccc(CNC3CCCCC3)c2)CC(C)(C)c2c1[nH]c1ccccc21` [Example 17, Isopropyl 3-{3-[(cyclohexylamino)methyl]benzoyl}-1,1-dimethyl-1,2,3,6-tetrahydroazepino[4,5-b]indole-5-carboxylate], the EC50 fell in the range of 500 to 1000 nM.
In the case of `CC(C)OC(=O)C1=CN(C(=O)c2cccc(CN(C)C3CCCCC3)c2)CC(C)(C)c2c1[nH]c1ccccc21` [Example 18, Isopropyl 3-(3-{[cyclohexyl(methyl)amino]methyl}benzoyl)-1,1-dimethyl-1,2,3,6-tetrahydroazepino[4,5-b]indole-5-carboxylate], the EC50 lay in the range of 500 to 1000 nM.
As to `CC(C)OC(=O)C1=CN(C(=O)c2cccc(CN3CCC(O)CC3)c2)CC(C)(C)c2c1[nH]c1ccccc21` [Example 19, Isopropyl 3-{3-[(4-hydroxypiperidin-1-yl)methyl]benzoyl}-1,1-dimethyl-1,2,3,6-tetrahydroazepino[4,5-b]indole-5-carboxylate], the EC50 lay within 500 to 1000 nM.
Turning to `CC(C)OC(=O)C1=CN(C(=O)c2cccc(CN3CCCC(C(N)=O)C3)c2)CC(C)(C)c2c1[nH]c1ccccc21` (stereo not drawn) [Example 20, isopropyl 3-{3-[(3-carbamoylpiperidin-1-yl)methyl]benzoyl}-1,1-dimethyl-1,2,3,6-tetrahydroazepino[4,5-b]indole-5-carboxylate], the EC50 was 500 to 1000 nM.
In the case of `CC(C)OC(=O)C1=CN(C(=O)c2cccc(CN3CCS(=O)(=O)CC3)c2)CC(C)(C)c2c1[nH]c1ccccc21` [Example 21, Isopropyl 3-{3-[(1,1-dioxidothiomorpholin-4-yl)methyl]benzoyl}-1,1-dimethyl-1,2,3,6-tetrahydroazepino[4,5-b]indole-5-carboxylate], the EC50 is 500 to 1000 nM.
Under `CC(C)OC(=O)C1=CN(C(=O)c2cccc(CNC3CCNCC3)c2)CC(C)(C)c2c1[nH]c1ccccc21` [Example 22, Isopropyl 1,1-dimethyl-3-{3-[(piperidin-4-ylamino)methyl]benzoyl}-1,2,3,6-tetrahydroazepino[4,5-b]indole-5-carboxylate dihydrochloride] stands 1000 to 10000 nM.

The values above are taken from patent US20110039824A1, “1,2,3,6-tetrahydroazepino[4,5-b]indole-5-carboxylate nuclear receptor inhibitors” (Wyeth, priority 2008, published 2011).
